Reference: patent publication US6696600B2, “L-DOPA ethyl ester salts and uses thereof” (priority 2001, dated 2004)
Where two headings read alike, the source gives them in different places. Values belong to the compound of their own block, whether it stands above or below them.

Legend:
Type in all cases: physicochemical
[1] = pKa and delta pKa (pKa LDEE − pKa acid)
From the text: Preparation and selection of salts that have different physical properties are detailed in the literature. […]. PKa of LDEE free base is known to be 7.24 [8]. […]. This fact is illustrated in Example 1 below, in which the crystallization of LDEE palmitate was attempted. After dissolution of LDEE base and palmitic acid in absolute alcohol, the solution was cooled, and instead of forming a new salt, pure palmitic acid was crystallized out, and no solid crystalline salt was formed. […]

[2] = Hygroscopicity test: weight gain of solid sample in humidity chamber at RH=80%; details: for hygroscopicity (in words): RH=80% screening; for weight gain in hygroscopicity test / appearance after exposure in a humidity chamber: RH=80%; for weight gain in hygroscopicity test: T=20±2° C.
From the text: There are many methods of quantitative evaluation of hygroscopicity of solid products without measuring the hygroscopic point. The most widely used method is based on measuring the weight gain of a solid sample in a humidity chamber. […] This method was used for screening the hygroscopicity of several LDEE salts. It also provides a comparison of the hygroscopic properties of different solids by comparison of water absorption rates under the same conditions.

pH of water solution = experiment: pH of water solution

Compound: CCOC(=O)[C@@H](N)Cc1ccc(O)c(O)c1.O=C(O)C(O)C(O)C(=O)O [Example 5, LDEE Hydrogen L(+)Tartrate]
delta pKa pKaLDEE − pKaacid (first value) [1]: 4.26
delta pKa pKaLDEE − pKaacid (second value) [1]: 2.90
Color stability at RH = 80% [2]: 19 h
Mean water absorption rate at RH = 80% [2]: 0.23 mol/kg/h
Material appearance after 24 hrs at RH = 80% [2]: Syrup
Weight gain during 24 hrs at RH = 80%,% [2]: 10.1%
hygroscopicity (in words) [2]: hygroscopic
weight gain in hygroscopicity test ([2]; during 24 hrs): 10.1%

delta pKa pKaLDEE − pKaacid (first value) [1]: ˜2.4
Color stability at RH = 80% [2]: >48 h
Mean water absorption rate at RH = 80% [2]: 0.002 mol/kg/h
water absorption at RH=80% (in words) [2]: did not absorb water
Material appearance after 24 hrs at RH = 80% [2]: White flowable powder
Weight gain during 24 hrs at RH = 80%,% [2]: 0.11%
hygroscopicity (in words) [2]: non-hygroscopic
weight gain in hygroscopicity test ([2]; during 24 hrs): 0.11%
appearance after exposure in a humidity chamber ([2]; about 24 hrs): white flowable powder
Compound: LDEE Myristate [Example 27]

Compound: CCOC(=O)[C@@H](N)Cc1ccc(O)c(O)c1.O=C(O)[C@@H](O)c1ccccc1 [Example 15, LDEE S(+)Mandelate]
delta pKa pKaLDEE − pKaacid (first value) [1]: 3.4
Color stability at RH = 80% [2]: >24 h
Mean water absorption rate at RH = 80% [2]: 0.092 mol/kg/h
Material appearance after 24 hrs at RH = 80% [2]: Semi-solid melt
Weight gain during 24 hrs at RH = 80%,% [2]: 4.0%
hygroscopicity (in words) [2]: hygroscopic
weight gain in hygroscopicity test ([2]; during 24 hrs): 4.02%

Compound: CCOC(=O)C(N)Cc1ccc(O)c(O)c1.O=C(O)C(O)C(O)C(=O)O (mixture of isomers) [Example 7, LDEE (LD)Tartrate]
delta pKa pKaLDEE − pKaacid (first value) [1]: 4.26
delta pKa pKaLDEE − pKaacid (second value) [1]: 2.90
Color stability at RH = 80% [2]: 20 h
Mean water absorption rate at RH = 80% [2]: 0.146 mol/kg/h
Material appearance after 24 hrs at RH = 80% [2]: Syrup
Weight gain during 24 hrs at RH = 80%,% [2]: 6.3%
hygroscopicity (in words) [2]: hygroscopic
weight gain in hygroscopicity test ([2]; during 24 hrs): 6.3%

Compound: CCO.CCOC(=O)[C@@H](N)Cc1ccc(O)c(O)c1.O=C(O)/C=C\C(=O)O [Example 28, LDEE Maleate Ethanolate]
delta pKa pKaLDEE − pKaacid (first value) [1]: 5.35
delta pKa pKaLDEE − pKaacid (second value) [1]: 1.02
pH of water solution (pH of water solution): 6.4
Color stability at RH = 80% [2]: 3 h
Mean water absorption rate at RH = 80% [2]: 0.07 mol/kg/h
Material appearance after 24 hrs at RH = 80% [2]: Yellowish syrup
Weight gain during 24 hrs at RH = 80%,% [2]: 3.1%
hygroscopicity (in words) [2]: hygroscopic
weight gain in hygroscopicity test ([2]; during 24 hrs): 3.1%

Compound: CCOC(=O)[C@@H](N)Cc1ccc(O)c(O)c1.O=P(O)(O)O [Example 11, LDEE Phosphate]
delta pKa pKaLDEE − pKaacid (first value) [1]: 5.09
delta pKa pKaLDEE − pKaacid (second value) [1]: 0.04
delta pKa pKaLDEE − pKaacid (third value) [1]: −4.6
Color stability at RH = 80% [2]: 15 h
Mean water absorption rate at RH = 80% [2]: 0.147 mol/kg/h
Material appearance after 24 hrs at RH = 80% [2]: Semi-solid melt
Weight gain during 24 hrs at RH = 80%,% [2]: 6.4%
weight gain in hygroscopicity test ([2]; during 24 hrs): 6.4%

Compound: CCCCC(=O)O.CCOC(=O)[C@@H](N)Cc1ccc(O)c(O)c1 [Example 18, LDEE Valerate]
delta pKa pKaLDEE − pKaacid (first value) [1]: ˜2.4

delta pKa pKaLDEE − pKaacid (first value) [1]: 2.4
Compound: LDEE Palmitate [Example 20]

Compound: CCCCCCCC(=O)O.CCOC(=O)[C@@H](N)Cc1ccc(O)c(O)c1 [Example 19, LDEE Octanoate]
delta pKa pKaLDEE − pKaacid (first value) [1]: 2.35
pH of water solution (pH of water solution): 6.0-6.5
Color stability at RH = 80% [2]: >48 h
Mean water absorption rate at RH = 80% [2]: 0.005 mol/kg/h
water absorption at RH=80% (in words) [2]: did not absorb water
Material appearance after 24 hrs at RH = 80% [2]: White flowable powder
Weight gain during 24 hrs at RH = 80%,% [2]: 0.22%
hygroscopicity (in words) [2]: non-hygroscopic
weight gain in hygroscopicity test ([2]; during 24 hrs): 0.22%
appearance after exposure in a humidity chamber ([2]; about 48 hrs): white flowable powder

Compound: CCOC(=O)[C@@H](N)Cc1ccc(O)c(O)c1.O=C(O)[C@@H](O)c1ccccc1 [Example 16, LDEE S(+)Mandelate]
delta pKa pKaLDEE − pKaacid (first value) ([1]; first pKa of the acid): 3.4

Compound: CCO.CCOC(=O)[C@@H](N)Cc1ccc(O)c(O)c1.CCOC(=O)[C@@H](N)Cc1ccc(O)c(O)c1.O=C(O)CCCCC(=O)O [Example 21, LDEE Adipate Ethanolate]
delta pKa pKaLDEE − pKaacid (first value) [1]: 2.81
delta pKa pKaLDEE − pKaacid (second value) [1]: 1.83
pH of water solution (pH of water solution): 6
Color stability at RH = 80% [2]: >24 h
Mean water absorption rate at RH = 80% [2]: 0.121 mol/kg/h
Material appearance after 24 hrs at RH = 80% [2]: Semi-solid melt
Weight gain during 24 hrs at RH = 80%,% [2]: 5.25%
hygroscopicity (in words) [2]: hygroscopic
weight gain in hygroscopicity test ([2]; during 24 hrs): 5.25%

Compound: CCOC(=O)C(N)Cc1ccc(O)c(O)c1.O=C(O)C(O)c1ccccc1 (stereo not drawn) [R(−)Mandelate from chloroform, LDEE R(−)Mandelate]
Color stability at RH = 80% [2]: >24 h
Material appearance after 24 hrs at RH = 80% [2]: Semi-solid melt

delta pKa pKaLDEE − pKaacid (first value) [1]: ˜2.4
Compound: Stearate

delta pKa pKaLDEE − pKaacid (first value) [1]: ˜2.4
Compound: LDEE Oleate [Example 26]

Compound: CCOC(=O)[C@@H](N)Cc1ccc(O)c(O)c1.O=C(O)C(O)C(O)C(=O)O [Example 4, LDEE L(+)Tartrate]
delta pKa pKaLDEE − pKaacid (first value) [1]: 4.26
delta pKa pKaLDEE − pKaacid (second value) [1]: 2.90
Color stability at RH = 80% [2]: 15 h
Mean water absorption rate at RH = 80% [2]: 0.164 mol/kg/h
Material appearance after 24 hrs at RH = 80% [2]: Syrup
Weight gain during 24 hrs at RH = 80%,% [2]: 7.1%
hygroscopicity (in words) [2]: hygroscopic
weight gain in hygroscopicity test ([2]; during 24 hrs): 7.1%

delta pKa pKaLDEE − pKaacid (first value) [1]: 3.14
Color stability at RH = 80% [2]: 0 to 5 h
Mean water absorption rate at RH = 80% [2]: 0.162 mol/kg/h
Material appearance after 24 hrs at RH = 80% [2]: Red semi-solid melt
Weight gain during 24 hrs at RH = 80%,% [2]: 7.0%
hygroscopicity (in words) [2]: hygroscopic
weight gain in hygroscopicity test ([2]; during 24 hrs): 7.04%
Compound: LDEE Ascorbate [Example 14]

Compound: CCOC(=O)[C@@H](N)Cc1ccc(O)c(O)c1.O=C(O)c1ccccc1 [Example 8, LDEE Benzoate]
delta pKa pKaLDEE − pKaacid (first value) [1]: 3.03
Color stability at RH = 80% [2]: 4.5 h
Mean water absorption rate at RH = 80% [2]: 0.09 mol/kg/h
Material appearance after 24 hrs at RH = 80% [2]: Semi-solid melt
Weight gain during 24 hrs at RH = 80%,% [2]: 4.1%
hygroscopicity (in words) [2]: hygroscopic
weight gain in hygroscopicity test ([2]; during 24 hrs): 4.1%

Compound: LDEE Citrate [Example 12]
delta pKa pKaLDEE − pKaacid (first value) ([1]; first pKa of the acid): 4.11
delta pKa pKaLDEE − pKaacid (second value) ([1]; second pKa of the acid): 4.28
delta pKa pKaLDEE − pKaacid (third value) ([1]; third pKa of the acid): 0.84
Color stability at RH = 80% [2]: 20 h
Mean water absorption rate at RH = 80% [2]: 0.146 mol/kg/h
Material appearance after 24 hrs at RH = 80% [2]: Semi-solid melt
Weight gain during 24 hrs at RH = 80%,% [2]: 6.3%
hygroscopicity (in words) [2]: hygroscopic
weight gain in hygroscopicity test ([2]; during 24 hrs): 6.3%

delta pKa pKaLDEE − pKaacid (first value) [1]: 2.48
pH of water solution (pH of water solution): 5.5-6.0
Color stability at RH = 80% [2]: 1.0 h
Mean water absorption rate at RH = 80% [2]: 0.023 mol/kg/h
Material appearance after 24 hrs at RH = 80% [2]: Semi-solid melt
Weight gain during 24 hrs at RH = 80%,% [2]: 1.0%
hygroscopicity (in words) [2]: hygroscopic
weight gain in hygroscopicity test ([2]; during 24 hrs): 1.03%
Compound: LDEE Phenylbutyrate [Example 10]

Compound: CCOC(=O)[C@@H](N)Cc1ccc(O)c(O)c1.O=C(O)CC(O)(CC(=O)O)C(=O)O [Example 13, LDEE Citrate]
delta pKa pKaLDEE − pKaacid (first value) [1]: 4.11
delta pKa pKaLDEE − pKaacid (second value) [1]: 4.28
delta pKa pKaLDEE − pKaacid (third value) [1]: 0.84

Compound: CCOC(=O)[C@@H](N)Cc1ccc(O)c(O)c1.O=C(O)C(O)C(O)C(=O)O [Example 6, LDEE D(−)Tartrate]
delta pKa pKaLDEE − pKaacid (first value) ([1]; first pKa of the acid): 4.26
Color stability at RH = 80% [2]: 20 h
Mean water absorption rate at RH = 80% [2]: 0.155 mol/kg/h
Weight gain during 24 hrs at RH = 80%,% [2]: 6.7%
weight gain in hygroscopicity test ([2]; during 24 hrs): 6.7%

Compound: CCO.CCOC(=O)[C@@H](N)Cc1ccc(O)c(O)c1.CCOC(=O)[C@@H](N)Cc1ccc(O)c(O)c1.O=C(O)CCC(=O)O [Example 22, LDEE Succinate Ethanolate]
delta pKa pKaLDEE − pKaacid (first value) [1]: 3.08
delta pKa pKaLDEE − pKaacid (second value) [1]: 1.63
pH of water solution (pH of water solution): 6
Color stability at RH = 80% [2]: >24 h
Mean water absorption rate at RH = 80% [2]: 0.067 mol/kg/h
Material appearance after 24 hrs at RH = 80% [2]: Semi-solid melt
Weight gain during 24 hrs at RH = 80%,% [2]: 2.9%
hygroscopicity (in words) [2]: hygroscopic
weight gain in hygroscopicity test ([2]; during 8 hrs): 4.3%

Compound: CCOC(=O)C(N)Cc1ccc(O)c(O)c1.O=C(O)C(O)c1ccccc1 (stereo not drawn) [Example 17, LDEE R(−)Mandelate]
delta pKa pKaLDEE − pKaacid (first value) ([1]; first pKa of the acid): 3.4
Color stability at RH = 80% [2]: >24 h
Mean water absorption rate at RH = 80% [2]: 0.125 mol/kg/h
Material appearance after 24 hrs at RH = 80% [2]: Semi-solid melt
Weight gain during 24 hrs at RH = 80%,% [2]: 5.4%
hygroscopicity (in words) [2]: hygroscopic
weight gain in hygroscopicity test ([2]; during 24 hrs): 5.4%
